This passage reports Ki results from ChEMBL document CHEMBL1130962, “Selective alpha-1a adrenergic receptor antagonists. Effects of pharmacophore regio- and stereochemistry on potency and selectivity” (Bioorg Med Chem Lett, 1998).

The target of test [1] is T1, Alpha-1B adrenergic receptor (Homo sapiens, UniProt P35368).
T1 sequence (P35368 whole entry): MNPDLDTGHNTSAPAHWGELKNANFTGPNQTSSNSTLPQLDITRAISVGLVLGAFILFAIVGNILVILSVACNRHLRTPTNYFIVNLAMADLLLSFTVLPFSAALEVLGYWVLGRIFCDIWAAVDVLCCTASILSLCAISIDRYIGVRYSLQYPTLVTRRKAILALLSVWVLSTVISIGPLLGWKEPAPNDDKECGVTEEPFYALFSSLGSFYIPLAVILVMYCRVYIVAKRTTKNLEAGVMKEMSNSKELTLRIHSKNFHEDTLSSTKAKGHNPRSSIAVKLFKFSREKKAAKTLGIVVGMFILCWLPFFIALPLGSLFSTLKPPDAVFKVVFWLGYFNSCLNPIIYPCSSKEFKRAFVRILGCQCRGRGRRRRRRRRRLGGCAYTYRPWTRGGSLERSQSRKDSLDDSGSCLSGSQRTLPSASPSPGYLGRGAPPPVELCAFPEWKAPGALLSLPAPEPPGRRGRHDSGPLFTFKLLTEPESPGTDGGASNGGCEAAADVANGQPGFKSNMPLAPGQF
The test can be described thus: Binding affinity against human Alpha-1b adrenergic receptor was evaluated by cloned receptor binding assay.

Test [2] concerns the target T2, Alpha-1D adrenergic receptor (Homo sapiens, UniProt P25100).
T2 sequence (P25100 whole entry): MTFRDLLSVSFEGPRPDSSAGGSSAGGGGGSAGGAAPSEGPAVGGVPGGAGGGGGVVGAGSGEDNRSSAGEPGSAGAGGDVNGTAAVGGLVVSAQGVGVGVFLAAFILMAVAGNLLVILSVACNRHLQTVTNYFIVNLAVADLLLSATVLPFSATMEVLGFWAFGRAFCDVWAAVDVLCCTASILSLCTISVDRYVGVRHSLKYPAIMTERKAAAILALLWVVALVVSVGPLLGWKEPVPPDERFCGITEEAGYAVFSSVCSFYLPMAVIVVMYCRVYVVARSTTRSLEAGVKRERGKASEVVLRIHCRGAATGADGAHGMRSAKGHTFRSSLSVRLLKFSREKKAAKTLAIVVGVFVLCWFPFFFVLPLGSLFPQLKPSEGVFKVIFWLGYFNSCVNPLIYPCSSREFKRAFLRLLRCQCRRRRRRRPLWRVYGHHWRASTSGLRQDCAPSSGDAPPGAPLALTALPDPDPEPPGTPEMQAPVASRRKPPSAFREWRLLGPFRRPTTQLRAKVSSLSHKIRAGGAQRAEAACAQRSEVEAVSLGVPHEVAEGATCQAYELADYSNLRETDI
The test can be described thus: Binding affinity against human Alpha-1d adrenergic receptor was evaluated by cloned receptor binding assay.

For test [3], the target named is T3, Alpha-1A adrenergic receptor (Homo sapiens, UniProt P35348).
T3 sequence (P35348 whole entry): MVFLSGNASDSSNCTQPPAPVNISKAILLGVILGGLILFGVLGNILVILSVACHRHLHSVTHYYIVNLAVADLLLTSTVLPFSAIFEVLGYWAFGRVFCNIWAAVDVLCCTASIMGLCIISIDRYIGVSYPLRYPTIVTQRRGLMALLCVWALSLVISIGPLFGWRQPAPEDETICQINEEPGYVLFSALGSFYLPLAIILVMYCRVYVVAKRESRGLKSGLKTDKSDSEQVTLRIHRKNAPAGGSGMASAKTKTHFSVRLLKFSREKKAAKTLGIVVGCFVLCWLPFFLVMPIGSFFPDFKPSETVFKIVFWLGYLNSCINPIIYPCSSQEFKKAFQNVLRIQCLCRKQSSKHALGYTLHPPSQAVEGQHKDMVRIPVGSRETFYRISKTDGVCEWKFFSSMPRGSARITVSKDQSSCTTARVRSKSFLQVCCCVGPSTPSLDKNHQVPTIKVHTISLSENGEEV
As to the kind of experiment: Binding affinity against human Alpha-1a adrenergic receptor was evaluated by cloned receptor binding assay.

Another test deals with Mu-type opioid receptor (Mus musculus, UniProt P42866). As to the kind of experiment: Opioid binding affinity was evaluated using [3H]DAMGO as radioligand.

Where only a bound is given, the exact number is not on record here.

Sequence of Mu-type opioid receptor (P42866 whole entry): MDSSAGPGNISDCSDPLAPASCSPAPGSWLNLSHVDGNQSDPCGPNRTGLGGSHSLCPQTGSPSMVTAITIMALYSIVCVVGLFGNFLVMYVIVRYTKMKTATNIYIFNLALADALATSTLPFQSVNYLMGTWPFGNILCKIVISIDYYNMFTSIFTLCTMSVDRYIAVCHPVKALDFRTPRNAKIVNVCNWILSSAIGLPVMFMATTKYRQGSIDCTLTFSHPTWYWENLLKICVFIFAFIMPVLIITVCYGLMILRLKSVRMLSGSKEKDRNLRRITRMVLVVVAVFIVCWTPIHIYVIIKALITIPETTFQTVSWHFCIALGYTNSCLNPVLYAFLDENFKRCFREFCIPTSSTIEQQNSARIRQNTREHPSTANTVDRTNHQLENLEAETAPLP

Regarding `CCOC(=O)[C@@H]1CN(CCCCN2C(=O)c3cc(Cl)ccc3S2(=O)=O)CC[C@@H]1c1ccccc1`, the values for the Ki in test [1], in test [2] and in test [3] were 170 nM, 480 nM and 0.51 nM, respectively.
As for `CCOC(=O)C1CNCCC1c1ccccc1` (racemic), affinity at Mu-type opioid receptor was put at a Ki of 24 µM.
As to `CCOC(=O)[C@H]1CN(CCCCN2C(=O)c3cc(Cl)ccc3S2(=O)=O)CC[C@@H]1c1ccccc1` (racemic), the inhibition constant Ki (as a rule, the dissociation constant of the complex between target and ligand, obtained from inhibition or displacement) in test [1] was found to be 1400 nM; in test [2] it was 320 nM; in test [3], 100 nM.
The like results for `CCOC(=O)[C@H]1CN(CCCCN2C(=O)c3cc(Cl)ccc3S2(=O)=O)CC[C@H]1c1ccccc1` were, in that order, more than 2000 nM, 1100 nM and 98 nM.
For the compound `CCOC(=O)C1CN(CCCCN2C(=O)c3cc(Cl)ccc3S2(=O)=O)CCC1c1ccccc1` (racemic), the figures for the Ki in test [1], in test [2] and in test [3] were 940 nM, 1800 nM and 3 nM, respectively.
`CCOC(=O)[C@@H]1CNCC[C@@H]1c1ccccc1` registered an inhibition constant (Ki) on Mu-type opioid receptor of 7.6 µM.
In the case of `COC(=O)C1(c2ccccc2)CCN(CCCCN2C(=O)c3cc(Cl)ccc3S2(=O)=O)CC1`, the inhibition constant Ki in test [1] was 2200 nM; in test [2], 2000 nM; in test [3], 44 nM.
As to `O=C1c2ccccc2S(=O)(=O)N1CCCCN1CCN(c2ncccn2)CC1` [IPSAPIRONE], the inhibition constant (Ki) is 220 nM in test [1], 46 nM in test [2] and 87 nM in test [3].
`CCOC(=O)[C@H]1CNCC[C@H]1c1ccccc1` displayed a Ki at Mu-type opioid receptor of 12 µM.
